Laboratory results reported in US11319322B2, “Substituted aryl ether compound, preparation method thereof, pharmaceutical composition and use thereof” (Xiamen University, priority 2017, dated 2022).

Key:
[1] = target: T1, CCDC6-RET-BaF3 (Homo sapiens, UniProt P07949); test: Growth inhibition of CCDC6-RET-BaF3 cells stably transfected with kinase (MTS); format: cell-based; settings: 48 h, read-out: CCDC6-RET (IC50/nM)
T1 construct: fused on or other part: Q16204 (Coiled-coil domain-containing protein 6)
T1 sequence (P07949 whole entry, change not shown, the tested form may be a part): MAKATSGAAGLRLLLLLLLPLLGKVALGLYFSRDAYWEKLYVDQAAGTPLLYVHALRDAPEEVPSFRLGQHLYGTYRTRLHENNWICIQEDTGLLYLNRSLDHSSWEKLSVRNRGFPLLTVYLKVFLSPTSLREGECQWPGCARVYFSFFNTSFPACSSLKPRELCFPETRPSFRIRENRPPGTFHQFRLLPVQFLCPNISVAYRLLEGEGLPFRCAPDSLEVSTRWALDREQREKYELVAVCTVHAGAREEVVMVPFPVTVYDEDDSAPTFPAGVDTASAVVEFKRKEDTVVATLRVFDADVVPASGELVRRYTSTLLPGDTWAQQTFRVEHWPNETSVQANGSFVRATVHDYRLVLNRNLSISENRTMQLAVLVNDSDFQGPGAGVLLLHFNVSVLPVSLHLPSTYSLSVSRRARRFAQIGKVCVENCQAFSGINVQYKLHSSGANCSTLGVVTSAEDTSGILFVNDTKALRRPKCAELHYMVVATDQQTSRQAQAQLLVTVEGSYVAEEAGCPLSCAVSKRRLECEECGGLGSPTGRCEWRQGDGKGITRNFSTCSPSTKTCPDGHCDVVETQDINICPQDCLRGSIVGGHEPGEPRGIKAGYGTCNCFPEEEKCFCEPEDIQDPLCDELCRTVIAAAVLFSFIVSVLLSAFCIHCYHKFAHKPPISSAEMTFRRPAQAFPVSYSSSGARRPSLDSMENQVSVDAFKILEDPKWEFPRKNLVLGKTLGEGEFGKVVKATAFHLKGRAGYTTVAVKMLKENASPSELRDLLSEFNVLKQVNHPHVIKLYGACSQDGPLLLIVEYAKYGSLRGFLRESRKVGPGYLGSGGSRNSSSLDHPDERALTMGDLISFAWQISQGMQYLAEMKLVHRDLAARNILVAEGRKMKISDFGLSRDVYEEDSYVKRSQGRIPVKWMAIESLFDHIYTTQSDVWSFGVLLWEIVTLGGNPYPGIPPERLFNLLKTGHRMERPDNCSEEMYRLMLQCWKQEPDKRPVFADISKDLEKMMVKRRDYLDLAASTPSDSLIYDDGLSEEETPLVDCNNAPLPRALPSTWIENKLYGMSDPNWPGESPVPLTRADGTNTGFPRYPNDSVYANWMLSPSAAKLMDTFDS
Protocol: (§1) Growth inhibitory activity of compounds on cell lines stably transfected with kinase
(§2) The activity of compounds against kinase RET is evaluated by their effect of inhibiting growth of cell lines stably transfected with kinase CCDC6-RET-BaF3, KIF5B-RET-BaF3, and wild-type BaF3 (Proc. Natl. Acad. Sci. USA., 2006, 103, 3153-8.). The growth of the cell lines stably transfected with kinase CCDC6-RET-BaF3, KIF5B-RET-BaF3 depends on their kinase activity. If a compound can inhibit the activity of the kinase RET per se or the activity of the RET signaling pathway, the compound can inhibit the growth of BaF3 cells stably transfected with kinase. […] Therefore, a larger ratio between IC50 of a compound to wild-type BaF3 and IC50 of the compound to the cell lines stably transfected with kinase CCDC6-RET-BaF3, KIF5B-RET-BaF3 indicates better targeting.
(§3) The specific test method is given as follows:
(§4) 1) Medium: DMEM (Dulbecco's modified eagle medium) or RPMI 1640 (containing 10% fetal bovine serum, 100 μg/mL ampicillin, 100 μg/mL streptomycin).
(§5) 2) Reagents: MTS reaction solution (containing 2 mg/mL of MTS [3-(4,5-dimethylthiazol-2-yl)-5-(3-carboxymethoxyphenyl)-2-(4-sulfophenyl)-2H-tetrazolium, inner Salt]; 100 μg/mL PES (phenazine […])).
(§6) 3) Compound test: cells stably transfected with kinase (CCDC6-RET-BaF3, KIF5B-RET-BaF3) or wild-type BaF3 cells (2×10^4 cells/well) were incubated into a 96-well culture plate, the volume of cell culture fluid was 90 μL, and then 10 μL of the compound at each gradient concentration was added (the highest concentration was 10 μM, which was diluted stepwise by ⅓, and 8 concentration points were set in total; the system contained 0.1% DMSO (dimethyl sulfoxide)). The cell plate with uniformly mixed compound was cultured in a cell culture incubator (37° C.; 5% CO2) for 48 h, then 20 μL of MTS reaction solution was added, uniformly mixed and incubated in the cell culture incubator (37° C.; 5% CO2) for 1-4 hr, OD values at 490 nm were measured by a microplate reader (VARIOSKAN FLASH, Thermo). Three parallels were set in each group of experiments, with 0.1% (a final concentration) DMSO as a negative control, and a medium without cells or compounds as a blank control. The cell growth inhibition rate was calculated by the following formula: Cell growth inhibition rate %=1−(ODexperimental group−ODblank group)/(ODnegative group−ODblank group)×100%
(§7) 4) IC50 calculation: The semi-inhibitory concentration of the compound acting on cell growth was calculated using GradPad Prism 5 software according to the measured cell growth inhibition rate.

[2] = target: T2, KIF5B-RET-BaF3 (Homo sapiens, UniProt P07949); test: Growth inhibition of KIF5B-RET-BaF3 cells stably transfected with kinase (MTS); format: cell-based; settings: 48 h, read-out: KIF5B-RET (IC50/nM)
T2 construct: fused on or other part: P33176 (Kinesin-1 heavy chain)
T2 sequence (P07949 whole entry, change not shown, the tested form may be a part): as above
Protocol: as §1, §2, §3, §4, §5, §6, §7

| SMILES | GI50 [1] [nM] | GI50 [2] [nM] |
| --- | --- | --- |
| Cc1ccc(NC(=O)c2ccc(CN3CCN(C)CC3)c(C(F)(F)F)c2)cc1Oc1nc(-c2cccnc2)nc2cc[nH]c12 [III-i-1] | 4110 | 2850 |
| Cc1ccc(NC(=O)c2ccc(CN3CCN(C)CC3)c(C(F)(F)F)c2)cc1Oc1nc(-c2ccncc2)nc2cc[nH]c12 [III-i-2] | 1400 | 774 |
| Cc1ccc(NC(=O)c2ccc(CN3CCN(C)CC3)c(C(F)(F)F)c2)cc1Oc1nc(-c2cccnc2)nc2ccn(C)c12 [III-i-3] | 4340 | 3630 |
| Cc1ccc(NC(=O)c2ccc(CN3CCN(C)CC3)c(C(F)(F)F)c2)cc1Oc1nc(-c2ccncc2)nc2ccn(C)c12 [III-i-4] | 2020 | 1330 |
| Cc1ccc(Oc2nc(-c3cccnc3)nc3cc[nH]c23)cc1NC(=O)c1ccc(CN2CCN(C)CC2)c(C(F)(F)F)c1 [III-j-1] | 5940 | 3250 |
| Cc1ccc(Oc2nc(-c3ccncc3)nc3cc[nH]c23)cc1NC(=O)c1ccc(CN2CCN(C)CC2)c(C(F)(F)F)c1 [III-j-2] | 6.06 | 2.32 |
| Cc1ccc(Oc2nc(-c3cccnc3)nc3ccn(C)c23)cc1NC(=O)c1ccc(CN2CCN(C)CC2)c(C(F)(F)F)c1 [III-j-5] | 4260 | 3100 |
| Cc1ccc(Oc2nc(-c3ccncc3)nc3ccn(C)c23)cc1NC(=O)c1ccc(CN2CCN(C)CC2)c(C(F)(F)F)c1 [III-j-6] | 28 | 13.2 |
| Cc1ccc(-c2nc(Oc3ccc(Cl)c(NC(=O)c4ccc(CN5CCN(C)CC5)c(C(F)(F)F)c4)c3)c3[nH]ccc3n2)cc1 [III-k-15] | 2200 | 2380 |
| CN1CCN(Cc2ccc(NC(=O)c3cccc(Oc4nc(-c5ccncc5)nc5cc[nH]c45)c3)cc2C(F)(F)F)CC1 [III-l-2] | 22.7 | 5.71 |
| CN1CCN(Cc2ccc(NC(=O)c3cccc(Oc4nc(-c5cccnc5)nc5ccn(C)c45)c3)cc2C(F)(F)F)CC1 [III-l-3] | 1400 | 1540 |
| CN1CCN(Cc2ccc(NC(=O)c3cccc(Oc4nc(-c5ccncc5)nc5ccn(C)c45)c3)cc2C(F)(F)F)CC1 [III-l-4] | 18.7 | 11.3 |
| Cc1ccc(C(=O)Nc2ccc(CN3CCN(C)CC3)c(C(F)(F)F)c2)cc1Oc1nc(-c2cccnc2)nc2cc[nH]c12 [III-m-1] | 4500 | 2100 |
| Cc1ccc(C(=O)Nc2ccc(CN3CCN(C)CC3)c(C(F)(F)F)c2)cc1Oc1nc(-c2ccncc2)nc2cc[nH]c12 [III-m-2] | 3630 | 1310 |
| Cc1ccc(C(=O)Nc2ccc(CN3CCN(C)CC3)c(C(F)(F)F)c2)cc1Oc1nc(-c2ccoc2)nc2ccn(C)c12 [III-m-17] | 3150 | 2760 |
| Cc1ccc(Oc2nc(-c3ccncc3)nc3cc[nH]c23)cc1C(=O)Nc1ccc(CN2CCN(C)CC2)c(C(F)(F)F)c1 [III-n-2] | 53.7 | 21 |
| Cc1ccc(Oc2nc(-c3ccncc3)nc3ccn(C)c23)cc1C(=O)Nc1ccc(CN2CCN(C)CC2)c(C(F)(F)F)c1 [III-n-4] | 43.1 | 17.2 |
| CN1CCN(Cc2cc(NC(=O)c3cccc(Oc4nc(-c5cccnc5)nc5ccn(C)c45)c3)cc(C(F)(F)F)c2)CC1 [III-p-3] | 4530 | 3380 |
| Cc1ccc(Oc2nc(-c3cccnc3)nc3cc[nH]c23)cc1C(=O)Nc1cc(CN2CCN(C)CC2)cc(C(F)(F)F)c1 [III-r-1] | 4450 | 4770 |
| CCC(=O)NC1CCN(c2ccc(NC(=O)c3ccc(C)c(Oc4nc(-c5ccncc5)nc5ccn(C)c45)c3)cc2C(F)(F)F)CC1 [III-v-8] | 10900 | 4340 |
| CC(=O)NC1CCN(c2ccc(NC(=O)c3ccc(C)c(Oc4nc(-c5ccncc5)nc5ccn(C)c45)c3)cc2C(F)(F)F)CC1 [III-v-9] | 4210 | 1750 |
| CCS(=O)(=O)NC1CCN(c2ccc(NC(=O)c3ccc(C)c(Oc4nc(-c5ccncc5)nc5ccn(C)c45)c3)cc2C(F)(F)F)CC1 [III-v-11] | 3330 | 1460 |
| CCC(=O)NCC1CCN(c2ccc(NC(=O)c3ccc(C)c(Oc4nc(-c5cccnc5)nc5cc[nH]c45)c3)cc2C(F)(F)F)CC1 [III-v-12] | 149 | 191 |
